Tests used:
HUV-EC-C cells (aFGF) = experiment: HUV-EC-C assay, aFGF (ECGF)-stimulated 3H-thymidine incorporation (HUVEC-aFGF); format: cell-based; conditions: Homo sapiens; Table 1
Experimental: (§1) The following protocol may also be used to measure a compound's activity against PDGF-R, FGF-R, VEGF, aFGF or Flk-1/KDR, all of which are naturally expressed by HUV-EC cells.
(§2) 1. […] After cells have detached from the flask, add an equal volume of assay medium and transfer to a 50 ml sterile centrifuge tube (Fisher Scientific, catalogue no. 05-539-6).
(§3) 2. Wash the cells with about 35 ml assay medium in the 50 ml sterile centrifuge tube by adding the assay medium, centrifuge for 10 minutes at approximately 200x g, aspirate the supernatant, and resuspend with 35 ml D-PBS. Repeat the wash two more times with D-PBS, resuspend the cells in about 1 ml assay medium/is cm^2 of tissue culture flask. Assay medium consists of F12K medium (Gibco BRL, catalogue no. 21127-014) and 0.5% heat-inactivated fetal bovine serum. Count the cells with a Coulter Counter® (Coulter Electronics, Inc.) and add assay medium to the cells to obtain a concentration of 0.8-1.0×10^5 cells/ml.
(§4) 3. Add cells to 96-well flat-bottom plates at 100 μl/well or 0.8-1.0×10^4 cells/well, incubate −24h at 37° C., 5% CO2.
(§5) 1. Make up two-fold test compound titrations in separate 96-well plates, generally 50 μM on down to 0 μM. Use the same assay medium as mentioned in day 0, step 2 above. Titrations are made by adding […] of test compound at 200 μM (4X the final well concentration) to the top well of a particular plate column. Since the stock test compound is usually 20 mM in DMSO, the 200 μM drug concentration contains 2% DMSO.
(§6) A diluent made up to 2% DMSO in assay medium (F12K+0.5% fetal bovine serum) is used as diluent for the test compound titrations in order to dilute the test compound but keep the DMSO concentration constant. Add this diluent to the remaining wells in the column at 60 μl/well. Take 60 μl from the 120 μl of 200 μM test compound dilution in the top well of the column and mix with the 60 μl in the second well of the column. Take 60 μl from this well and mix with the 60 μl in the third well of the column, and so on until two-fold titrations are completed. When the next-to-the-last well is mixed, take 60 μl of the 120 μl in this well and discard it. Leave the last well with 60 μl of DMSO/media diluent as a non-test compound-containing control. Make 9 columns of titrated test compound, enough for triplicate wells each for: (1) VEGF (obtained from Pepro Tech Inc., catalogue no. 100-200, (2) endothelial cell growth factor (ECGF) (also known as acidic fibroblast growth factor, or aFGF) (obtained from Boehringer Mannheim Biochemica, catalogue no. 1439 600), or, (3) human PDGF B/B (1276-956, Boehringer Mannheim, Germany) and assay media control. ECGF comes as a preparation with sodium heparin.
(§7) 2. Transfer 50 μl/well of the test compound dilutions to the 96-well assay plates containing the 0.8-1.0×10^4 cells/100 μl/well of the HUV-EC-C cells from day 0 and incubate […] at 37° C., 5% CO2.
(§8) 3. In triplicate, add 50 μl well of […] VEGF, 20 ng/ml ECGF, or media control to each test compound condition. As with the test compounds, the growth factor concentrations are 4X the desired final concentration. Use the assay media from day 0 step 2 to make the concentrations of growth factors. Incubate approximately 24 hours at 37° C., 5% CO2. Each well will have 50 μl test compound dilution, 50 μl growth factor or media, and 100 μl cells, which calculates to 200 μl/well total. Thus the 4X concentrations of test compound and growth factors become 1X once everything has been added to the wells.
(§9) 1. Add ^3H-thymidine (Amersham, catalogue no. TRK-686) at 1 μCi/well (10 μl/well of 100 μCi/ml solution made up in RPMI media +10% heat-inactivated fetal bovine serum) and incubate ˜24 h at 37° C., 5% CO2. RPMI is obtained from Gibco BRL, catalogue no. 11875-051.
(§10) 1. Freeze plates overnight at −20° C. […]

HUV-EC-C cells (VEGF) = experiment: HUV-EC-C assay, VEGF-stimulated 3H-thymidine incorporation (HUVEC-VEGF); format: cell-based; conditions: Homo sapiens; Table 1
Experimental: as §1, §2, §3, §4, §5, §6, §7, §8, §9, §10

Cc1[nH]c(/C=C2\C(=O)Nc3ccc(Br)cc32)c(C)c1CCC(=O)O [Example 19, 3-[5-(5-Bromo-2-oxo-1,2-dihydroindol-3-ylidenemethyl)-2,4-dimethyl-1H-pyrrol-3-yl]-propionic acid]
IC50 (HUV-EC-C cells (aFGF)): 3600 nM | IC50 (HUV-EC-C cells (VEGF)): 70 nM

COc1ccc2c(c1)NC(=O)/C2=C\c1[nH]c(C)c(CCC(=O)O)c1C [Example 24, 3-[5-(6-Methoxy-2-oxo-1,2-dihydroindol-3-ylidenemethyl)-2,4-dimethyl-1H-pyrrol-3-yl]-propionic acid]
IC50 (HUV-EC-C cells (aFGF)): 25100 nM | IC50 (HUV-EC-C cells (VEGF)): 670 nM

COc1ccc2c(c1)/C(=C/c1[nH]cc(CCC(=O)O)c1C)C(=O)N2 [Example 18, 3-[5-(5-Methoxy-2-oxo-1,2-dihydroindol-3-ylidenemethyl)-4-methyl-1H-pyrrol-3-yl]-propionic acid]
IC50 (HUV-EC-C cells (aFGF)): 18400 nM | IC50 (HUV-EC-C cells (VEGF)): 2400 nM

CCOc1cccc(-c2ccc3c(c2)NC(=O)/C3=C\c2[nH]c(C)c(CCC(=O)O)c2C)c1 [Example 30, 3-(5-[6-(3-Ethoxy-phenyl)-2-oxo-1,2-dihydroindol-3-ylidenemethyl]-2,4-dimethyl-1H-pyrrol-3-yl)-propionic acid]
IC50 (HUV-EC-C cells (aFGF)): 640 nM | IC50 (HUV-EC-C cells (VEGF)): 250 nM

Cc1c(CCC(=O)O)c[nH]c1/C=C1\C(=O)Nc2cc(Br)ccc21 [Example 28, 3-[5-(6-Bromo-2-oxo-1,2-dihydroindol-3-ylidenemethyl)-4-methyl-1H-pyrrol-3-yl]-propionic acid]
IC50 (HUV-EC-C cells (aFGF)): 1900 nM | IC50 (HUV-EC-C cells (VEGF)): 150 nM

Cc1c(CCC(=O)O)c[nH]c1/C=C1\C(=O)Nc2ccccc21 [Example 4, 3-[4-Methyl-5-(2-oxo-l,2-dihydroindol-3-ylidenemethyl)-1H-pyrrol-3-yl]-propionic acid]
IC50 (HUV-EC-C cells (aFGF)): 7100 nM | IC50 (HUV-EC-C cells (VEGF)): 110 nM

COc1cccc(-c2ccc3c(c2)NC(=O)/C3=C\c2[nH]c(C)c(CCC(=O)O)c2C)c1 [Example 27, 3-{5-[6-(3-Methoxy-phenyl)-2-oxo-1,2-dihydroindol-3-ylidenemethyl]-2,4-dimethyl-1H-pyrrol-3-yl}-propionic acid]
IC50 (HUV-EC-C cells (aFGF)): 1500 nM | IC50 (HUV-EC-C cells (VEGF)): 990 nM

COc1cccc(-c2ccc3c(c2)NC(=O)/C3=C\c2[nH]cc(CCC(=O)O)c2C)c1 [Example 29, 3-{5-[6-(3-Methoxy-phenyl)-2-oxo-1,2-dihydroindol-3-ylidenemethyl]-4-methyl-1N-pyrrol-3-yl}-propionic acid]
IC50 (HUV-EC-C cells (aFGF)): 130 nM | IC50 (HUV-EC-C cells (VEGF)): 180 nM

CCc1ccc2c(c1)/C(=C/c1[nH]cc(CCC(=O)O)c1C)C(=O)N2 [Example 17, 3-[5-(5-Ethyl-2-oxo-1,2-dihydro-indol-3-ylidenemethyl)-4-methyl-1H-pyrrol-3-yl]-propionic acid]
IC50 (HUV-EC-C cells (aFGF)): 20000 nM | IC50 (HUV-EC-C cells (VEGF)): 1200 nM

Cc1c(CCC(=O)O)c[nH]c1/C=C1\C(=O)Nc2cc(Cl)ccc21 [Example 11, 3-[5-(6-Chloro-2-oxo-1,2-dihydroindol-3-ylidenemethyl)-4-methyl-1H-pyrrol-3-yl]-propionic acid]
IC50 (HUV-EC-C cells (aFGF)): 9600 nM | IC50 (HUV-EC-C cells (VEGF)): 1400 nM

COc1cc2c(cc1OC)/C(=C/c1[nH]cc(CCC(=O)O)c1C)C(=O)N2 [Example 10, 3-[5-(5,6-Dimethoxy-2-oxo-1,2-dihydroindol-3-ylidenemethyl)-4-methyl-1H-pyrrol-3-yl]-propionic acid]
IC50 (HUV-EC-C cells (aFGF)): > 50000 nM | IC50 (HUV-EC-C cells (VEGF)): 10600 nM

Cc1[nH]c(/C=C2\C(=O)Nc3ccc(Cl)cc32)c(C)c1CCC(=O)O [Example 3, 3-[5-(5-Chloro-2-oxo-1,2-dihydroindol-3-ylidenemethyl)-2,4-dimethyl-1H-pyrrol-3-yl]-propionic acid]
IC50 (HUV-EC-C cells (aFGF)): 2800 nM | IC50 (HUV-EC-C cells (VEGF)): 50 nM

COc1ccc2c(c1)NC(=O)/C2=C\c1[nH]cc(CCC(=O)O)c1C [Example 2, 3-[5-(6-Methoxy-2-oxo-1,2-dihydroindol-3-ylidenemethyl)-4-methyl-1H-pyrrol-3-yl]-propionic acid]
IC50 (HUV-EC-C cells (aFGF)): 31600 nM | IC50 (HUV-EC-C cells (VEGF)): 1600 nM

CCOc1cccc(-c2ccc3c(c2)NC(=O)/C3=C\c2[nH]cc(CCC(=O)O)c2C)c1 [Example 31, 3-{5-[6-(3-Ethoxy-phenyl)-2-oxo-1,2-dihydroindol-3-ylidenemethyl]-4-methyl-1H-pyrrol-3-yl}-propionic acid]
IC50 (HUV-EC-C cells (aFGF)): 180 nM | IC50 (HUV-EC-C cells (VEGF)): 90 nM

Cc1c(CCC(=O)O)c[nH]c1/C=C1\C(=O)Nc2cc(-c3ccccc3)ccc21 [Example 33, 3-[4-Methyl-5-(2-oxo-6-phenyl-1,2-dihydro-indol3-ylidenemethyl)-1H-pyrrol-3-yl]-propionic acid]
IC50 (HUV-EC-C cells (aFGF)): 1000 nM | IC50 (HUV-EC-C cells (VEGF)): 810 nM

COC(=O)c1ccc2c(c1)/C(=C/c1[nH]cc(CCC(=O)O)c1C)C(=O)N2 [Example 12, 3-[4-(2-Carboxyethyl)-3-methyl-1H-pyrrol-2-ylmethylene]-2-oxo-2,3-dihydro-1H-indole-5-carboxylic acid methyl ester]
IC50 (HUV-EC-C cells (aFGF)): 24600 nM | IC50 (HUV-EC-C cells (VEGF)): 11000 nM

Cc1c(CCC(=O)O)c[nH]c1/C=C1\C(=O)Nc2ccc(Br)cc21 [Example 6, 3-[5-(5-Bromo-2-oxo-1,2-dihydroindol-3-ylidenemethyl)-4-methyl-1H-pyrrol-3-yl]-propionic acid]
IC50 (HUV-EC-C cells (aFGF)): 18400 nM | IC50 (HUV-EC-C cells (VEGF)): 630 nM

Cc1cccc2c1/C(=C/c1[nH]c(C)c(CCC(=O)O)c1C)C(=O)N2 [Example 21, 3-[2,4-Dimethyl-5-(4-methyl-2-oxo-1,2-dihydroindol-3-ylidene-methyl)-1H-pyrrol-3-yl]-propionic acid]
IC50 (HUV-EC-C cells (aFGF)): 5600 nM | IC50 (HUV-EC-C cells (VEGF)): 4000 nM

Cc1[nH]c(/C=C2\C(=O)Nc3ccc(I)cc32)c(C)c1CCC(=O)O [Example 20, 3-[5-(5-Iodo-2-oxo-1,2-dihydroindol-3-ylidenemethyl)-2,4-dimethyl-1H-pyrrol-3-yl]-propionic acid]
IC50 (HUV-EC-C cells (aFGF)): 5000 nM | IC50 (HUV-EC-C cells (VEGF)): 290 nM

Cc1[nH]c(/C=C2\C(=O)Nc3cc(O)ccc32)c(C)c1CCC(=O)O [Example 23, 3-[5-(6-Hydroxy-2-oxo-1,2-dihydroindol-3-ylidenemethyl)-2,4-dimethyl-1H-pyrrol-3-yl]-propionic acid]
IC50 (HUV-EC-C cells (aFGF)): 1100 nM | IC50 (HUV-EC-C cells (VEGF)): 3000 nM

Cc1cccc2c1/C(=C/c1[nH]cc(CCC(=O)O)c1C)C(=O)N2 [Example 8, 3-[4-Methyl-5-(4-methyl-2-oxo-1,2-dihydroindol-3-ylidenemethyl)-1H-pyrrol-3-yl]-propionic acid]
IC50 (HUV-EC-C cells (aFGF)): 4520 nM | IC50 (HUV-EC-C cells (VEGF)): 740 nM

Cc1c(CCC(=O)O)c[nH]c1/C=C1\C(=O)Nc2ccc(I)cc21 [Example 7, 3-[5-(5-Iodo-2-oxo-1,2-dihydroindol-3-ylidenemethyl)-4-methyl-1H-pyrrol-3-yl]-propionic acid]
IC50 (HUV-EC-C cells (aFGF)): 12300 nM | IC50 (HUV-EC-C cells (VEGF)): 1340 nM

Cc1[nH]c(/C=C2\C(=O)Nc3cc(-c4ccccc4)ccc32)c(C)c1CCC(=O)O [Example 32, 3-[2,4-Dimethyl-5-(2-oxo-6-phenyl-1,2-dihydroindol-3-ylidenemethyl)-1H-pyrrol-3-yl]-propionic acid]
IC50 (HUV-EC-C cells (aFGF)): 10000 nM | IC50 (HUV-EC-C cells (VEGF)): 10000 nM

Cc1ccc2c(c1)/C(=C/c1[nH]cc(CCC(=O)O)c1C)C(=O)N2 [Example 9, 3-[4-Methyl-5-(5-methyl-2-oxo-1,2-dihydroindol-3-ylidenemethyl)-1H-pyrrol-3-yl]-propionic acid]
IC50 (HUV-EC-C cells (aFGF)): 13400 nM | IC50 (HUV-EC-C cells (VEGF)): 330 nM

Cc1c(CCC(=O)O)c[nH]c1/C=C1\C(=O)Nc2ccc(Cl)cc21 [Example 1, 3-[5-(5-Chloro-2-oxo-1,2-dihydroindol-3-ylidenemethyl)-4-methyl-1H-pyrrol-3-yl]-propionic acid]
IC50 (HUV-EC-C cells (aFGF)): 21400 nM | IC50 (HUV-EC-C cells (VEGF)): 380 nM
